pIC50: −log10 of the molar value. The source made the active and inactive calls. The calls are words filed in the database; no cut-off is given here.
What was measured:
786-0 = experiment: Antiproliferative activity against human 786-0 cells assessed as inhibition of cell growth incubated for 48 hrs by MTT assay; type: functional, cell-based; details: 786-0, 48 h
CWR22R = experiment: Antiproliferative activity against human 22Rv1 cells assessed as inhibition of cell growth incubated for 48 hrs by MTT assay; type: functional, cell-based; details: 22Rv1, 48 h
SK-OV-3 = experiment: Antiproliferative activity against human SK-OV-3 cells assessed as inhibition of cell growth incubated for 48 hrs by MTT assay; type: functional, cell-based; details: SK-OV-3, 48 h
HCT-116 [1] = experiment: Induction of autophagy in human HCT-116 cells transfected with tandem mRFP-GFP-LC3 plasmid assessed as reduction in p62 expression incubated for 24 hrs by Western blot analysis; type: functional, cell-based; details: dose 0.5-20 µM
HCT-116 [2] = experiment: Induction of apoptosis in human HCT-116 assessed as early apoptotic cells at 1 uM incubated for 24 hrs Annexin V FITC/PI double staining based flow cytometry (reference value: 1.07 %); type: functional
HCT-116 [3] = experiment: Induction of apoptosis in human HCT-116 assessed as late apoptotic cells at 1 uM incubated for 24 hrs Annexin V FITC/PI double staining based flow cytometry (reference value: 8.02 %); type: functional
HCT-116 [4] = experiment: Induction of apoptosis in human HCT-116 assessed as viable cells at 2 uM incubated for 24 hrs Annexin V FITC/PI double staining based flow cytometry (Rvb =90.0%); type: functional; details: read-out: Activity
HCT-116 [5] = experiment: Induction of apoptosis in human HCT-116 assessed as early apoptotic cells at 2 uM incubated for 24 hrs Annexin V FITC/PI double staining based flow cytometry (reference value: 1.07 %); type: functional
HCT-116 [6] = experiment: Induction of apoptosis in human HCT-116 assessed as necrotic cells at 2 uM incubated for 24 hrs Annexin V FITC/PI double staining based flow cytometry (reference value: 0.94 %); type: functional
HCT-116 [7] = experiment: Induction of apoptosis in human HCT-116 assessed as viable cells at 1 uM pretreated with Z-VAD-FMK for 30 mins followed by compound addition and measured after 24 hrs by Annexin V-FITC/PI double staining based flow cytometry (reference value: 90.8%); type: functional; details: read-out: Activity
HCT-116 [8] = experiment: Induction of apoptosis in human HCT-116 assessed as necrotic cells at 1 uM pretreated with Z-VAD-FMK for 30 mins followed by compound addition and measured after 24 hrs by Annexin V-FITC/PI double staining based flow cytometry (reference value: 0.84 %); type: functional
HCT-116 [9] = experiment: Induction of apoptosis in human HCT-116 assessed as necrotic cells at 2 uM pretreated with Z-VAD-FMK for 30 mins followed by compound addition and measured after 24 hrs by Annexin V-FITC/PI double staining based flow cytometry (reference value: 0.84%); type: functional
HCT-116 [10] = experiment: Antiproliferative activity against ATG7 knockout human HCT-116 cells assessed as inhibition of cell viability incubated for 24 hrs by CCK8 assay; type: functional, cell-based; details: HCT-116, 24 h
HCT-116 [11] = experiment: Induction of autophagy in ATG5 knockout human HCT-116 cells assessed as increase in LC3-II expression at 1 to 2 uM incubated for 24 hrs by Western blot analysis; type: functional, cell-based; details: dose 1-2 µM
HCT-116 [12] = experiment: Effect on C-PARP expression level in p53 knockout human HCT-116 cells at 1 to 2 uM incubated for 24 hrs by Western blot analysis; type: functional, cell-based; details: dose 1-2 µM
HCT-116 [13] = experiment: Effect on caspase 3 expression level in p53 knockout human HCT-116 cells at 1 to 2 uM incubated for 24 hrs by Western blot analysis; type: functional, cell-based; details: dose 1-2 µM
HCT-116 [14] = experiment: Induction of autophagy in human HCT-116 cells transfected with tandem mRFP-GFP-LC3 plasmid assessed as increase in LC3-II accumulation incubated for 24 hrs by Western blot analysis; type: functional, cell-based; details: dose 0.5-20 µM
[15] = Toxicity in female BALB/c mouse implanted with mouse CT26 cells assessed as change in heart morphology at 1 to 2 mg/kg administrated once every 3 days for 18 days by H&E staining based analysis; type: organism-based; details: in vivo, 432 h, dose 1-2 mg/kg, time 18 day
[16] = Toxicity in female BALB/c mouse implanted with mouse CT26 cells assessed as change in kidney morphology at 1 to 2 mg/kg administrated once every 3 days for 18 days by H&E staining based analysis; type: organism-based; details: in vivo, 432 h, dose 1-2 mg/kg, time 18 day
HCT-116 [17] = experiment: Inhibition of cell migration in human HCT-116 cells at 1 to 2 uM incubated for 24 hrs by crystal violet staining based transwell migration assay; type: functional; details: dose 1-2 µM
HCT-116 [18] = experiment: Induction of morphological changes in human HCT-116 cells assessed as decrease in adherence to culture dish at 0.5 to 2 uM by microscopic analysis; type: functional, cell-based; details: dose 0.5-2 µM
HCT-116 [19] = experiment: Induction of apoptosis in human HCT-116 cells assessed as effect on cleaved caspase-8 expression level at 0.5 to 2 uM incubated for 24 hrs by Western blot analysis; type: functional, cell-based; details: dose 0.5-2 µM
HCT-116 [20] = experiment: Effect on PARP expression level in Bax knockout human HCT-116 cells at 1 to 2 uM incubated for 24 hrs by Western blot analysis; type: functional, cell-based; details: dose 1-2 µM
HCT-116 [21] = experiment: Effect on caspase 3 expression level in Bax knockout human HCT-116 cells at 1 to 2 uM incubated for 24 hrs by Western blot analysis; type: functional, cell-based; details: dose 1-2 µM
HCT-116 [22] = experiment: Effect on cleaved caspase 3 expression level in Bax knockout human HCT-116 cells at 1 to 2 uM incubated for 24 hrs by Western blot analysis; type: functional, cell-based; details: dose 1-2 µM
HCT-116 [23] = experiment: Induction of autophagy in human HCT-116 cells transfected with mRFP-GFP-LC3B assessed as autophagolysosome formation by measuring RFP fluorescence at 0.5 to 2 uM incubated for 24 hrs by DAPI staining based fluorescence confocal microscopic analysis; type: functional, cell-based; details: dose 0.5-2 µM
HCT-116 [24] = experiment: Induction of autophagy in human HCT-116 cells transfected with mRFP-GFP-LC3B assessed as autophagolysosome formation by measuring decrease in GFP fluorescence at 0.5 to 2 uM incubated for 24 hrs by DAPI staining based fluorescence confocal microscopic analysis; type: functional, cell-based; details: dose 0.5-2 µM
HCT-116 [25] = experiment: Induction of autophagy in human HCT-116 cells transfected with tandem mRFP-GFP-LC3 plasmid assessed as reduction in p62 expression by Western blot analysis; type: functional, cell-based; details: time 3-48 hrs
HCT-116 [26] = experiment: Induction of autophagy in human HCT-116 cells transfected with tandem mRFP-GFP-LC3 plasmid assessed as increase in LC3-II accumulation by Western blot analysis; type: functional, cell-based; details: time 3-48 hrs
HCT-116 [27] = experiment: Upregulation of autophagy pathway related genes expression in human HCT-116 cells at 1 uM incubated for 24 hrs by GSVA enrichment analysis; type: functional, cell-based
HCT-116 [28] = experiment: Inhibition of colony formation in wildtype human HCT-116 cells assessed as reduction in number of colonies at 1 to 4 uM measured after 24 hrs by crystal violet staining based analysis; type: functional, cell-based; details: dose 1-4 µM
CT26 [29] = experiment: Antitumor activity against mouse CT26 cells implanted in female BALB/c mouse assessed as reduction in tumor volume at 2 mg/kg administrated once every 3 days for 18 days; type: functional, organism-based; details: time 18.0 day
CT26 [30] = experiment: Antitumor activity against mouse CT26 cells implanted in female BALB/c mouse assessed as reduction in tumor weight at 1 mg/kg administrated once every 3 days for 18 days relative to control; type: functional; set-up: scale not given: the % may be the effect or the level left; details: time 18 day
CT26 [31] = experiment: Antitumor activity against mouse CT26 cells implanted in female BALB/c mouse assessed as reduction in tumor weight at 2 mg/kg administrated once every 3 days for 18 days relative to control; type: functional; set-up: scale not given: the % may be the effect or the level left; details: time 18 day

pIC50 (786-0): 5.41
pIC50 (SK-OV-3): 5.37
pIC50 (HCT-116 [10]): 5.19
Compound: CCN(CC)CCCNCc1cc2c3ccccc3n(CCCc3ccccc3)c2c(CNCCCN(CC)CC)n1
pIC50 (CWR22R): 5.39
Activity (HCT-116 [1]): Dose-dependent-effect
Activity (HCT-116 [2]): 2.19%
Activity (HCT-116 [3]): 11.2%
viability at 2 µM (HCT-116 [4]): 80.5%
Activity (HCT-116 [5]): 2.78%
Activity (HCT-116 [6]): 2.86%
viability at 1 µM (HCT-116 [7]): 83.7%
Activity (HCT-116 [8]): 2.2%
Activity (HCT-116 [9]): 1.8%
Activity (HCT-116 [11]): inactive
Activity (HCT-116 [12]): inactive
Activity (HCT-116 [13]): inactive
Activity (HCT-116 [14]): Dose-dependent-effect; Transformation Of Lc3-I To Lc3-Ii Observed
Activity [15]: Non-toxic
Activity [16]: Non-toxic
inhibition (HCT-116 [17]): Active
Activity (HCT-116 [18]): Active
Activity (HCT-116 [19]): inactive
Activity (HCT-116 [20]): inactive
Activity (HCT-116 [21]): inactive
Activity (HCT-116 [22]): inactive
Activity (HCT-116 [23]): Active; Rfp Fluorescence Remained Unchanged
Activity (HCT-116 [24]): Active
Activity (HCT-116 [25]): Time-dependent-effect
Activity (HCT-116 [26]): Time-dependent-effect
Activity (HCT-116 [27]): Active
inhibition (HCT-116 [28]): Active
Activity (CT26 [29]): Active; Stronger Than 4Mg/Kg Of Cisplatin Treatment Group
Activity (CT26 [30]): 56.5%
Activity (CT26 [31]): 87.3%
